Data as given in ChEMBL document CHEMBL3751839, “Novel phenylalanine derived diamides as Factor XIa inhibitors” (Bioorg Med Chem Lett, 2016).

Legend:
in vitro = details: human, liver microsomes
Description: Stability in human liver microsomes assessed as half life

in vivo [1] = details: beagle, dog, iv, 0.4 mg/kg
Description: Clearance in beagle dog at 0.4 mg/kg, iv administered as cassette dosing by LC-MS/MS method

in vivo [2] = details: beagle, dog, iv, 0.4 mg/kg; remark: listed apart in the source
Description: Total AUC in beagle dog at 0.4 mg/kg, iv administered as cassette dosing by LC-MS/MS method

in vivo [3] = details: beagle, dog, iv, 0.4 mg/kg; remark: listed apart in the source
Description: Volume of distribution at steady state in beagle dog at 0.4 mg/kg, iv cassette dosing by LC-MS/MS method

in vivo [4] = details: beagle, dog, iv, 0.4 mg/kg; remark: listed apart in the source
Description: Half life in beagle dog at 0.4 mg/kg, iv cassette dosing by LC-MS/MS method

clearance (in vivo [1]) [L/h/kg]	AUC (in vivo [2]) [nM·h]	Vd (in vivo [3]) [L/kg]	half-life (in vivo [4]) [h]	SMILES	half-life (in vitro) [h]
–	–	–	–	O=C(/C=C/c1cc(Cl)ccc1-n1cnnn1)N[C@@H](Cc1ccccc1)C(=O)Nc1ccc(-n2cnnn2)cc1	> 1.67
–	–	–	–	COC(=O)Nc1cccc(NC(=O)[C@H](Cc2ccccc2)NC(=O)/C=C/c2cc(Cl)ccc2-n2cnnn2)c1	> 1.67
–	–	–	–	O=C(/C=C/c1cc(Cl)ccc1-n1cnnn1)N[C@@H](Cc1ccccc1)C(=O)Nc1ccc(-c2nc[nH]n2)cc1	> 1.67
0.96	396	0.5	0.6	O=C(/C=C/c1cc(Cl)ccc1-n1cnnn1)N[C@@H](Cc1ccccc1)C(=O)Nc1ccc(C(=O)O)cc1	> 2
